≈ marks a conversion by molar mass, not a printed value. Where two headings read alike, the source gives them in different places.
Columns and labels:
PANC-1 cells = experiment: MTT cell viability analysis, single agents, PANC-1; assay type: cell-based, human; conditions: MTT, cultured 24, 48 and 72 hours (time of IC50 not given)
Method: (§1) In this example, the effects of the compound of the present invention and different anticancer medicaments on killing cancer cells were studied by MTT (Thiazolyl Blue tetrazolium bromide, 3-[4,5-dimethylthiahiazo-2-yl]-[…] bromide) cell viability analysis.
(§2) Thereafter, each of the aforesaid cell lines was cultured with cell medium containing gemcitabine, cisplatin, 5-fluorouracil, irinotecan, oxaliplatin, paclitaxel, (Z)-n-butylidenephthalide, (E)-n-butylidenephthalide, 2-pentanolybenzoic acid, sodium 2-pentanoylbenzoate, and butylphthalide, for 24 hours, 48 hours and 72 hours, respectively.

Panc02 cells = experiment: MTT cell viability analysis, single agents, Panc02; assay type: cell-based, mouse; conditions: MTT, cultured 24, 48 and 72 hours (time of IC50 not given)
Method: as §1, §2

AsPC-1 cells = experiment: MTT cell viability analysis, single agents, AsPC-1; assay type: cell-based, human; conditions: AsPC-1, MTT, cultured 24, 48 and 72 hours (time of IC50 not given)
Method: as §1, §2

Mia-PaCa2 cells = experiment: MTT cell viability analysis, single agents, Mia-PaCa2; assay type: cell-based, human; conditions: Mia-PaCa2, MTT, cultured 24, 48 and 72 hours (time of IC50 not given)
Method: as §1, §2

[1] = test system: Panc02 cells pancreatic tumor; experiment: Orthotopic Panc02 pancreatic tumor, tumor size by T2-weighted MRI; assay type: in vivo, C57BL/6J mouse; conditions: fifteenth day, 14 days of treatment; group regimens; FIG. 3
Method: (§3) According to the requirements of Institutional Animal Care and Use Committee (IACUC) of Dong Hwa University, C57BL/6J mice were feed in the experimental animal center of Dong Hwa University until 8 to 10 weeks old. Then, the stably constructed Panc02 cells transfected by Luc-eGFP were in-situ injected into the mice pancreases (1×10^6 cells/0.02 ml/mouse). Thereafter, the tumor sizes of mice pancreases were analyzed through the animal imaging results, and the mice were equally divided into nine group depending on their tumor sizes and treated by the following conditions for three to four weeks:
(1) “Control (Ctl.)” group (5 mice): untreated, only orally administering vehicle (containing none of the compound of the present invention and other anticancer medicaments) every day. […]
The stably constructed Panc02 cells transfected by Luc-eGFP were in-situ injected into the mice of each group of Example 4-1, and after determining the growth of in-situ pancreatic tumor, the medicament treatments were conducted for 14 days (i.e., the fifteenth day). In this duration, the pancreatic tumors of mice in each group were analyzed and observed by T2-weighted MRI and taken pictures for records. The tumor (a portion circled by a dotted line) sizes of mice of each group in FIG. 2 were analyzed by amide software.

[2] = test system: Panc02 cells pancreatic tumor; experiment: Survival of mice with orthotopic Panc02 pancreatic cancer; assay type: in vivo, C57BL/6J mouse; conditions: Gem group: 100 mg/kg intraperitoneally per three days
Method: as §3
(1) “Control (Ctl.)” group (5 mice): untreated, only orally administering vehicle (containing none of the compound of the present invention and other anticancer medicaments) every day.
(2) “LD” group (5 mice): orally administering a low dose (12.5 mg/kg body weight) of (Z)-n-butylidenephthalide every day.
(3) “HD” group (5 mice): orally administering a high dose (25 mg/kg body weight) of (Z)-n-butylidenephthalide every day.
(4) “Gem” group (5 mice): intraperitoneally injecting 100 mg/kg body weight of gemcitabine (GEM) per three days.
(5) “LD+Gem” group (5 mice): orally administering 12.5 mg/kg body weight of (Z)-n-butylidenephthalide every day, and intraperitoneally injecting 50 mg/kg body weight of gemcitabine (GEM) per three days.
(6) “TS-1” group (5 mice): after orally administering 100 mg/kg body weight of TS-1 every day for five continuous days, stopping the oral administration of TS-1 for two days.
According to the method of Example 4-1, the pancreatic cancer mice were established and the survivals of mice in each group were observed and recorded every day. The results are shown in Table 15 and FIG. 5A to FIG. 5D.

PD-L1 protein = experiment: Western Blotting of pancreatic tumor tissue, PD-L1; assay type: in vivo, C57BL/6J mouse; conditions: FIG. 6, group regimens
Method: as §3
(§4) After accomplishing the observations of Examples 4-2 to 4-3, the mice in each group were sacrificed and the tissues of pancreatic tumor thereof were collected to extracting proteins. Then, the expressions of CD44 protein, CD44ICD protein, PD-1 protein, PD-L1 protein, p-Akt protein, and Akt protein in the protein sample of each group were detected by Western Blotting. Furthermore, the expression of GAPDH protein serves as an internal control.

PD-1 protein = experiment: Western Blotting of pancreatic tumor tissue, PD-1; assay type: in vivo, C57BL/6J mouse; conditions: FIG. 6, group regimens
Method: as §3, §4

[3] = Homo sapiens, ASPC1, read-out: IC50
[4] = Homo sapiens, MIA PaCa-2, read-out: IC50

| IC50 (PANC-1 cells; Homo sapiens, read-out: IC50) | IC50 (Panc02 cells; Mus musculus, read-out: IC50) | IC50 (AsPC-1 cells; [3]) | IC50 (Mia-PaCa2 cells; [4]) | Compound | IC50 (PANC-1 cells) | IC50 (Panc02 cells) | IC50 (AsPC-1 cells) | IC50 (Mia-PaCa2 cells) | tumor size (T2-weighted MRI) [1] | Average of overall survival [2] | Median of overall survival [2] | Fold (as compared to Ctl. group) ([2]; survival) | expression of PD-L1 protein in pancreatic tumor tissue (PD-L1 protein) | expression of PD-1 protein in pancreatic tumor tissue (PD-1 protein) |
| --- | --- | --- | --- | --- | --- | --- | --- | --- | --- | --- | --- | --- | --- | --- |
| 38.5 ± 1.08 µg/mL (≈ 65.5 µM) | 69.5 ± 1.01 µg/mL (≈ 118 µM) | 54.4 ± 2.13 µg/mL (≈ 92.7 µM) | 21.7 ± 0.82 µg/mL (≈ 36.9 µM) | CCc1c2c(nc3ccc(OC(=O)N4CCC(N5CCCCC5)CC4)cc13)-c1cc3c(c(=O)n1C2)COC(=O)[C@]3(O)CC [irinotecan, Irinotecan] |  |  |  |  |  |  |  |  |  |  |
| 0.0196 µg/mL (≈ 0.023 µM) | 0.0124 µg/mL (≈ 0.0146 µM) | 0.058 µg/mL (≈ 0.0679 µM) | 0.00458 µg/mL (≈ 0.00536 µM) | CC(=O)O[C@H]1C(=O)[C@@]2(C)[C@H]([C@H](OC(=O)c3ccccc3)[C@]3(O)C[C@H](OC(=O)[C@H](O)[C@@H](NC(=O)c4ccccc4)c4ccccc4)C(C)=C1C3(C)C)[C@]1(OC(C)=O)CO[C@@H]1C[C@@H]2O [paclitaxel, Paclitaxel] |  |  |  |  |  |  |  |  |  |  |
| 687 ± 27.1 µg/mL | 750 ± 28.7 µg/mL | 624 ± 49.6 µg/mL | 469 ± 18.6 µg/mL | CCCCC(=O)c1ccccc1C(=O)[O-].[Na+] [sodium 2-pentanoylbenzoate, Sodium 2-pentanoylbenzoate] |  |  |  |  |  |  |  |  |  |  |

The remaining lines, values behind:

| Compound | IC50 (PANC-1 cells; Homo sapiens, read-out: IC50) | IC50 (Panc02 cells; Mus musculus, read-out: IC50) | IC50 (AsPC-1 cells; [3]) | IC50 (Mia-PaCa2 cells; [4]) | IC50 (PANC-1 cells) | IC50 (Panc02 cells) | IC50 (AsPC-1 cells) | IC50 (Mia-PaCa2 cells) | tumor size (T2-weighted MRI) [1] | Average of overall survival [2] | Median of overall survival [2] | Fold (as compared to Ctl. group) ([2]; survival) | expression of PD-L1 protein in pancreatic tumor tissue (PD-L1 protein) | expression of PD-1 protein in pancreatic tumor tissue (PD-1 protein) |
| --- | --- | --- | --- | --- | --- | --- | --- | --- | --- | --- | --- | --- | --- | --- |
| N.N.[Cl][Pt][Cl] [cisplatin, Cisplatin] |  |  |  |  | 35.87 ± 1.23 µg/mL | 53.36 ± 1.74 µg/mL | 21.56 ± 1.05 µg/mL | 32.86 ± 1.08 µg/mL |  |  |  |  |  |  |
| Nc1ccn([C@@H]2O[C@H](CO)[C@@H](O)C2(F)F)c(=O)n1 [gemcitabine, Gemcitabine] | 1.53 ± 0.3 µg/mL (≈ 5.81 µM) | 0.00377 µg/mL (≈ 0.0143 µM) | 6.56 ± 0.82 µg/mL (≈ 24.9 µM) | 0.85 ± 0.36 µg/mL (≈ 3.23 µM) |  |  |  |  | bigger than that of untreated “Control” group | 31.7 ± 1.023 days | 30 days | 1.8 | more than that of the untreated “Control” group | more than that of the untreated “Control” group |
| O=C1[O][Pt]2([NH][C@@H]3CCCC[C@H]3[NH]2)[O]C1=O [oxaliplatin, Oxaliplatin] |  |  |  |  | 18.79 ± 1.35 µg/mL | 8.43 ± 0.83 µg/mL | 42.60 ± 7.61 µg/mL | 21.81 ± 1.60 µg/mL |  |  |  |  |  |  |
